The values below come from US10524455B2, “Methods and compositions for inducing hygienic behavior in honey bees” (University of North Carolina at Greensboro, priority 2015, dated 2020).

The test system of test [1] is honey bees (MH and control colonies). In words: Induced hygienic behavior study with synthesized P32 applied to cell caps by syringe. The test is classed as in vivo, honey bee. The following applies: results discarded by the patent for methodological issues. How it is done:
Methods: The pure P32 compound will be aliquoted and diluted in hexane. 1 ul of different dilutions will be applied onto larvae and/or caps of individual brood cells in three experimental hives. The VSH, MH, and control genotype (together, hereinafter, referred to as “line”) will be tested for their response. Hives from each source will be set up in an experimental apiary and standardized in size, brood, and resources. Brood frames containing uncapped 5th larval instars will be collected from each hive, and the location of the uncapped cells will be marked using a plastic transparency. Frames will be replaced into the hives, and cells that are capped within the next 16 hours will be recorded and used for the experiment. At day 4 post-capping, cells will be treated with hexane (a negative control) or one of the following dilutions of pure P32: 10^−1, 10^−3, 10^−5, 10^−7, 10^−9, 10^−11. Pin-killed brood will be used as a positive control. Twenty cells will receive each treatment in each colony for a total sample size of 1440 (20 cells×8 treatments×3 replicate hives×3 genotypes). Treatments will be randomly distributed across experimental combs and the location of each treatment recorded on a clear transparent sheet put over the comb. […] A new method for application of chemicals by airbrushing was also utilized to increase speed and quantity in chemical application (FIG. 12).

In test [2] the test system is honey bees (single VSH colony). In words: Induced hygienic behavior study with synthesized P32 applied to cell caps by airbrushing. In kind it is in vivo, honey bee. The following applies: for removal of pupae in treated brood cells compared to all control brood cells: roughly 10 ul per cell by airbrushing, 24 hours, controls: (Z)-16-dotriacontene at any concentration, hexane, no treatment; for dose dependence of removal: concentrations 1%, 0.3%, 0.1% by airbrushing. As to the method: Methods: The dose dependent removal effects of (Z)-10-tritriacontene and (Z)-16-dotriacontene applied to wax caps of honey bee brood cells were measured repeatedly in a single VSH colony. (Z)-10-tritriacontene, along with (Z)-16-dotriacontene and hexane controls were applied to capped honey bee brood cells using a Paasche H-100D Single Action Airbrush & Compressor system, operating at 25 PSI. To control the amount of brood cells exposed to each chemical treatment (and thus the dose per cell) 3″ diameter PVC pipe pieces were inserted into a brood frames containing capped pupae. Thus, for each treatment and replicate, 2 mL of solution was applied to a single 3″-diameter section of brood comb by airbrushing. Since there are roughly 200 cells per 3″ diameter circle, this is roughly 10 ul solution per cell. Concentrations of 1%, 0.3%, and 0.1% (Z)-10-tritriacontene and (Z)-16-dotriacontene were tested. Sample sizes for (Z)-10-tritriacontene were 532, 420, and 282 cells for concentrations of 1%, 0.3%, and 0.1%, respectively. Sample sizes for (Z)-16-dotriacontene were 289, 296, and 311 for concentrations of 1%, 0.3%, and 0.1%, respectively. Sample sizes for the hexane control and no treatment control were 425 and 154, respectively. The location of all assays on frames was randomized. The frequency of uncapping and removal was recorded at four hours and twenty-four hours post treatment. Chi-square analysis with Bonferroni correction was used to compare hygienic removal and uncapping between treatments.

Structures are written as SMILES.

Turning to `CCCCCCCCC/C=C\CCCCCCCCCCCCCCCCCCCCCC` [(Z)-10-tritriacontene], the entries for the “removal of treated cells compared to hexane treated cells” value in test [1] (MH colonies (both tested)) and in test [1] (control colonies) were “significantly higher removal” and “no significant difference”, respectively. Moreover, the “removal of pupae in treated brood cells compared to all control brood cells” value in test [2] (0.3% in hexane) and in test [2] (1% in hexane) was “significantly greater” throughout. Also, in test [2], the “dose dependence of removal” value was “removed in a dose-dependent manner”.
Take `CCCCCCCCCCCCCCC/C=C\CCCCCCCCCCCCCCC` [(Z)-16-dotriacontene, reference compound]: the “dose dependence of removal” value in test [2] is “removed in a dose-dependent manner”.
